Measured values as given in PubChem BioAssay AID179 (DTP/NCI, 2004).
Values joined by “and” are separate entries in the source; they are usually repeats but may differ in a detail not shown here. Equal entries are not always repeated. Active and inactive are the calls of the source.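 Rule for the calls: active = compounds giving half or more protection of infected cells from virus-caused growth loss, again on retest; inactive = the rest.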

System: CEM cells HIV-1 protection, formazan growth assay
Experiment: NCI AIDS Antiviral Assay
Settings: for IC50: measured here: growth of uninfected CEM cells
Outline: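 CEM (human) cells, HIV-1 infected vs uninfected, 5-point dosing, formazan growth read-out. Retest threshold 50% protection.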

SMILES | EC50 [µM] | IC50 | outcome
Nc1ccccc1C(=O)/C=C/c1ccccc1O | > 74.1 | 52.5 µM | –
COCC[N+](CCNC(=O)c1cccc2c(N)c3cccc(C)c3nc12)(CCOC)Cc1ccc([N+](=O)[O-])cc1 | > 200 | 13.2 µM | –
COc1ccc(-c2c(C(C)=O)c(-c3ccccc3)n(C3OC(COC(C)=O)C(OC(C)=O)C(OC(C)=O)C3OC(C)=O)c(=S)c2C#N)cc1O (stereo not given) | > 200 | 24.5 µM and 38.9 µM | –
CC(C)(C)C(=O)OCC1CCC[N+]2(C)CCCCC12 (stereo not given) | > 200 | > 200 µM | –
CN(C)P(=O)(/C(N)=N/Nc1ccc([N+](=O)[O-])cc1)N(C)C | > 158 | 155 µM | –
CN(C(=O)C12C3C4C1C1C2C3C41C(=O)N(C)C(C)(C)C)C(C)(C)C (stereo not given) | > 30.2 | > 30.2 µM | –
O=C1C2CCC3C1C(C(=O)O)C(C(=O)O)C23 (stereo not given) | > 200 | > 200 µM | –
Cc1nc(N)c(N2CCN(Cc3ccccc3)CC2)c(=O)[nH]1 | > 200 | > 200 µM | –
O=C([CH-]C(=O)c1ccccc1)c1ccccc1.O=C([CH-]C(=O)c1ccccc1)c1ccccc1.[OH-].[OH-].[Ti+4] | > 25.7 | > 25.7 µM | –
Cc1cc(C)c(SSc2c(C)cc(C)cc2C)c(C)c1 | > 200 | 28.2 µM | –
COc1cc2c(c(OC)c1OC)C(=O)[C@@H](O)[C@H]2NC(=O)CCCCl | > 200 | > 200 µM | –
CO/C=C/C=C(\C#N)C(=O)OC | 174 | > 200 µM | –
COc1c(C(=O)c2ccc([N+](=O)[O-])cc2)cc(C(C)(C)C)cc1C(C)(C)C | – | – | inactive
CC(C)(C)C(=O)/C=C(\OB(F)F)C(C)(C)C | > 200 | > 200 µM | –
NC(=O)C12CCC1C1CCCCC12N1CCOCC1 (stereo not given) | – | – | inactive
OC(Cn1cncn1)(Cn1cncn1)c1ccc(Cl)cc1Cl | > 741 | 490 µM | –
CC(=O)Nc1ccc([As](=O)(O)O)cc1C(=O)O | > 200 | > 200 µM | –
CC(C)CC(N)CO (stereo not given) | > 200 | > 200 µM | –
COc1ccccc1NC(=O)C(/C=N/C(N)=S)=C(\C)O | > 200 | > 200 µM | –
Cn1cnc(/C=C/C#N)c1 | > 200 | > 200 µM | –
Brc1ccccc1C=NC12CC3CC(CC(C3)C1)C2 | > 22.9 | > 22.9 µM | –
CC(C)=C/C(CC(O)(C(F)(F)F)C(F)(F)F)=N\O | > 200 | > 200 µM | –

SMILES | EC50 [µM] | IC50 | outcome
Cc1ccc(S(=O)(=O)N2CCn3ncc(C#N)c32)cc1 | > 186 | > 186 µM | –
COC(=O)c1cc(C(=CCCC(C)[C@H]2CCC3C4CC[C@@H]5CCCC[C@]5(C)C4CC[C@@]32C)c2cc(Cl)c(OC)c(C(=O)OC)c2)cc(Cl)c1OC (stereo not given in full) | > 200 | 39.8 µM | –
Nc1ccc(/C=C\C2(CCl)OCCO2)cc1 | > 100 | > 100 µM | –
CC(NCCNC(C)C(=O)O)C(=O)O (stereo not given) | > 676 | > 676 µM | –
CCOC(OCC)[C@@H]1C[C@@H]2N(O[C@H](OC3CCCC3(c3ccccc3)c3ccccc3)[C@H](OC(C)=O)[C@@]2(CC)Cc2ccc(OC)c(OC)c2)O1 (stereo not given in full) | > 200 | > 200 µM | –
NC(=N\N=C/c1ccc(Cl)cc1Cl)/C(N)=N\N=C/c1ccc(Cl)cc1Cl | – | – | inactive
CC(C)O[C@H]1N(C2CC(N=[N+]=[N-])C(CO)O2)C(=O)NC(=O)[C@]1(C)Cl (stereo not given in full) | > 200 | > 200 µM | –
COc1cc(/C=N/NC2=NCCCCN2)ccc1O | > 200 | > 200 µM | –
COP(=O)(OC)OC=C(Cl)Cl | > 200 | > 200 µM | –
Nc1nsc2nc3ccccc3cc12 | – | – | inactive
CCOC(=O)c1cc2c(nc1NCc1ccccc1)C(=O)CCCC2 | > 200 | 19.1 µM | –
Cc1cccc(NC(=O)Nc2cccc(Cl)c2Cl)n1 | > 200 | > 200 µM | –
COc1ccc2c(C)cc(=O)oc2c1OC | > 200 | > 200 µM | –
N#Cc1cnc(-n2[nH]c3c(c2=O)CCCC3)[nH]c1=O | – | – | inactive
CC1(C)OC(=O)C(=Cc2ccccc2Cl)C(=O)O1 | > 490 | 2.45 µM | –
OCC1OC(OC[C@H](COCc2ccccc2)OCc2ccccc2)C(O)C(O)C1O (stereo not given in full) | > 35.5 | > 35.5 µM | –
C=CC(=O)NC(N)=NC#N | > 1820 | 60.3 µM | –
CN(C)C(=O)OC1C(=O)N(C)c2ccc(Cl)cc2C2(c3ccccc3)N1C2(Cl)Cl (stereo not given) | > 200 | 10.7 µM | –
CCN(CC(COc1ccc2c(c1)[n+]([O-])nc(N)[n+]2[O-])OC(C)=O)C(C)=O (stereo not given) | > 200 | 14.8 µM | –
CON(C)C(=O)C(Cc1ccccc1)NC(=O)OCc1ccccc1 (stereo not given) | > 200 | 182 µM | –
CCOC(=O)C1(Cc2ccccc2)Cc2cc3c(cc2C1=O)CCC3 (stereo not given) | > 200 | 14.8 µM | –
CCOC1N(C2C=CC(CO)O2)C(=O)NC(=O)C1(C)Br (stereo not given) | > 13.5 | > 13.5 µM | –

SMILES | EC50 [µM] | IC50 | outcome
Cc1ccc(S(=O)(=O)N/N=C2/CCC(C(C)(C)C)CC2Br)cc1 (stereo not given) | > 200 | 30.9 µM | –
N#Cc1sc2nc3ccccc3n2c1N | > 200 | 28.8 µM | –
O=c1c(-c2ccccc2)c2oc(c1-c1ccccc1)CS(=O)(=O)CCC2 | > 97.7 | 18.6 µM | –
CC(=O)CCCCn1c(=O)c2c(ncn2C)n(C)c1=O | > 891 | > 891 µM | –
CCNCCNCC.[O-][Cl+3]([O-])([O-])[O-].[Pd+2].c1ccc(-c2ccccn2)nc1 | > 200 | 30.9 µM | –
CC(C)(C)c1ccc(OCCOc2ccc(C(C)(C)C)cc2N)c(N)c1 | > 200 | > 200 µM | –
CC(C)Oc1ccc(CNC2=NCCO2)c2ccccc12 | > 200 | 17.8 µM | –
CC(=O)Nc1ccc2c(C)c3c4ccccc4n(C)c3nc2n1 | > 200 | 5.25 µM | –
Nc1cc(N2CCOCC2)nc(=O)n1-c1ccc(Cl)cc1 | > 200 | > 200 µM | –
C=CCCCC(C#N)(c1ccccc1)N1CCCC1 (stereo not given) | – | – | inactive
Nc1ccn(C2OC(COC(=O)c3ccccc3)C(OC(=O)c3ccccc3)C2I)c(=O)n1 (stereo not given) | > 200 | 35.5 µM | –
C/C(=N\NC(C)(C)C)c1sc(-c2nc(C)c(/C(C)=N/NC(C)(C)C)s2)nc1C | > 44.7 | > 44.7 µM | –
Cc1ccc(NC(=O)OCC(COc2ccc(Cl)cc2)OC(=O)Nc2ccc(C)cc2)cc1 (stereo not given) | > 15.5 | > 15.5 µM | –
CCCCCCCCCCn1cccc1/C=C/c1ccc(/C=C/c2cccn2CCCCCCCCCC)cc1 | – | – | inactive
CC1=CC(=O)N(n2c(-c3ccccc3)n[nH]c2=O)C1=O | > 200 | > 200 µM | –
C=C(C)C1CC(=O)C(C)=C(O)C1 (stereo not given) | – | – | inactive
O=C(Nc1ccc(N=Nc2ccc(S(=O)(=O)O)cc2)cc1)c1ccc(N=Nc2ccc3c(S(=O)(=O)O)cccc3c2O)cc1 | 30.9 | 195 µM | –
CCCCCCCCOCC(O)COC(=O)CCCCCCC (stereo not given) | > 251 | 20.9 µM | –
C=C1CN(S(=O)(=O)c2ccc(C)cc2)CCCCN(Cc2ccccc2)CCCN(S(=O)(=O)c2ccc(C)cc2)C1 | > 200 | 6.92 µM | –
C[C@]12Cc3conc3C(O)=C1CC[C@@H]1C2CC[C@@]2(C)C1CC[C@@H]2O (stereo not given in full) | > 204 | 25.7 µM | –
CO[C@H]1SC[C@H](OC(C)=O)[C@H](OC(C)=O)[C@H]1OC(C)=O | > 200 | > 200 µM | –
CC1SC(=O)SC1C (stereo not given) | > 1700 | > 1700 µM | –

SMILES | EC50 [µM] | IC50 | outcome
O=C(c1ccc([N+](=O)[O-])cc1[N+](=O)[O-])N(/N=C/C=C/c1ccccc1)c1nnc(-c2ccccc2)c(-c2ccccc2)n1 | > 9.12 | > 9.12 µM | –
O=C(Nc1ccc(/C=C\c2ccc(NC(=O)c3ccc4ccccc4c3O)cc2S(=O)(=O)O)c(S(=O)(=O)O)c1)c1ccc2ccccc2c1O | 126 | > 200 µM | –
O=C(O)c1cc(N=Nc2c(O)cc(O)cc2C(=O)O)ccc1/C=C/c1ccc(N=Nc2c(O)cc(O)cc2C(=O)O)cc1C(=O)O | 87.1 | 95.5 µM | –
Cc1cc(/C=C2/OC(=O)c3ccccc32)cc(C)c1O | > 100 | > 100 µM | –
CN1Cc2cc(O)c(O)cc2C(O)C1 (stereo not given) | > 200 | 102 µM | –
CNc1ccc(C)cc1S(=O)(=O)c1ccccc1[N+](=O)[O-] | 0.832 | 16.6 µM | –
Nc1ccc([N+](=O)[O-])cc1CN1C(=O)c2ccccc2C1=O | > 200 | > 200 µM | –
Nc1c(Cl)cc(Cl)cc1C(=O)O | > 200 | 195 µM | –
CC(=O)O[C@H]1CC[C@@]2(C)C(CC[C@@H]3C2C(Br)C(=O)[C@]2(C)C4C(CC32)OC2(OCC(C)CC2Br)C4C)C1 (stereo not given in full) | – | – | inactive
Cc1cc(C)nc(NS(=O)(=O)c2ccc(NC(=O)c3cccc4c(N)c5ccccc5nc34)cc2)n1 | > 44.7 | > 44.7 µM | –
CC(=N\NC(=O)c1ccccc1)/C(C)=N/NC(=O)c1ccccc1 | > 30.9 | > 30.9 µM | –
CC1(C)CC(=O)C2=C(C1)NC(=S)C(C#N)C2c1ccccc1 (stereo not given) | > 85.1 | 32.4 µM | –
COc1c(C)c(C/C=C(\C)CCCCO[Si](c2ccccc2)(c2ccccc2)C(C)(C)C)c(OC)c(OC)c1OC | > 200 | 93.3 µM | –
Cc1cccc(C2ON=C(c3ccccc3)N2C23CC4CC(CC(C4)C2)C3)c1 (stereo not given) | > 200 | 49 µM | –
CCCCCC(/C=N/Nc1ccccc1)C(O)(C(F)(F)F)C(F)(F)F (stereo not given) | > 200 | 105 µM | –
O=C1c2ccccc2C(=O)N1/N=C1/SC(=Nc2ccccc2)C(=Nc2ccccc2)N1c1ccccc1 | – | – | inactive
Cc1ccc(-n2c(Cn3nnc(-c4cccnc4)n3)nn(C3OC(COC(=O)c4ccccc4)C(OC(=O)c4ccccc4)C3OC(=O)c3ccccc3)c2=S)cc1 (stereo not given) | > 200 | > 200 µM | –
CCOP(=O)(OCC)/C(C#N)=C/c1ccoc1 | > 977 | > 977 µM | –
CC1CC/C(=C\c2ccc(F)cc2)C2=C1C(c1ccc(F)cc1)NC(=S)N2 (stereo not given) | > 200 | 16.6 µM | –
COc1ccn(C)c(=O)c1C#N | > 1510 | > 1510 µM | –
CCN(CC)CCSSCCN(CC)CC | > 200 | 38.9 µM | –
N#CC1(C#N)C(C#N)(C#N)C12CCCCCC2 | – | – | inactive
